Results published in US20070141635A1, “Novel translocation assay” (priority 2003, published 2007).

Legend:
GLUT4 = conditions: cited from earlier work
[1] = system: 3T3-L1 adipocytes expressing HA-GLUT4 WT; assay: Inducing GLUT4 translocation with insulin followed by sucrose; type: cell-based; conditions: 0.3 or 0.6M sucrose for 2 hours after 20 minutes 200 nM insulin; serum free
Description: 3T3-L1 adipocytes expressing HA-GLUT4 WT were serum starved for 2 hours at 37° C. Following 20 minutes insulin stimulation with 200 nM insulin, cells were incubated for additional 2 hours in serum free medium supplemented with 0.2% BSA and 0.3 or 0.6M sucrose. After post-fixation anti-HA immunolabeling the level of cell surface HA-GLUT4 levels was determined as a percentage of total HA-GLUT4 detected after cell lysis. […] Furthermore, increasing concentrations of sucrose induce more GLUT4 to translocate to the plasma membrane in the presence of reduced levels of insulin.

[2] = system: 3T3-L1 adipocytes expressing HA-GLUT4 WT; assay: Continuous anti-HA antibody uptake (GLUT4 recycling) experiment; type: cell-based
Description: For continuous antibody uptake experiments, cells were incubated for 20 min with or without insulin, whereafter anti-HA (50 μg/ml) or non-relevant antibody was added. Cells that were used to determine the total amount of HA-GLUT4 were not incubated with antibody during this 37° C. incubation. After incubation, the cells were fixed and quenched as described above, and incubated for 20 min with 5% NSS and 0.1% saponin. Cells that were used to determine the total cellular amount of HA-GLUT4 were incubated for 60 min with anti-HA antibody or control antibody in PBS containing 2% NSS. All other cells were incubated with 2% NSS without antibody. Subsequently, the cells were incubated with ALEXA488-conjugated goat-anti-mouse antibody and ALEXA594-conjugated WGA, washed and analysed. The amount of specific anti-HA uptake was expressed as a percentage of total cellular immuno-reactive HA-GLUT4.
To analyze the exchange of GLUT4 with the cell surface under steady state conditions, studies were performed in which live cells were incubated with anti-HA antibody at 37° C. (FIG. 5). […] 3T3-L1 adipocytes expressing HA-GLUT4 WT were stimulated for 2 h with 200 nM insulin in the presence of anti-HA antibody, washed extensively, incubated for 2 h without insulin and anti-HA, and incubated for a further 20 min in the absence (FIG. 5C) or presence (FIG. 5D) of 200 nM insulin.
For quantification of anti-HA antibody uptake, cells were preincubated for 20 min in the presence or absence of insulin after which anti-HA antibody or control antibody was added for various times (FIG. 5E). Antibody uptake was determined by labeling cells with fluorescent secondary antibody after fixation. Antibody uptake was expressed as a percentage of post-fixation anti-HA labeling.
To study this non-recycling GLUT4 pool in adipocytes, 3T3-L1 adipocytes expressing HA-GLUT4 WT were incubated at 37° C. in the continuous presence of anti-HA antibody. Cells were incubated with or without 200 nM insulin for 20 min, after which anti-HA antibody was added in the continued presence or absence of insulin. Cells were incubated further for up to 180 min, fixed, permeablilized, and incubated with fluorescent secondary antibody. The level of anti-HA antibody taken up by the cells was then expressed as a percentage of total post-fixation anti-HA labeling of permeablilized cells.

[3] = system: HA-GLUT4-expressing 3T3-L1 adipocytes; assay: Fluorescence-based HA-GLUT4 translocation assay (GLUT4 at plasma membrane as percentage of total) in adipocytes; type: cell-based
Description: Retrovirally-transduced fibroblasts expressing HA-tagged GLUT 4 or a mutant therof were differentiated into adipocytes essentially as described above. These adipocytes were then subcultured for 30 hours. Insulin was then added at different time points, after which the cells were fixed in 3% formaldehyde. After washing and quenching with 50 mM glycine, cells were incubated for 20 min with 5% normal swine serum (NSS) in the absence or presence of 0.1% saponin to analyse the level of GLUT4 at the plasma membrane (PM) or the total cellular GLUT4 content, respectively. Cells were incubated for 60 min with a saturating concentration of either an antibody directed against the HA tag or a control non-relevant antibody (mouse IgG MOPC21) in PBS containing 2% NSS. After extensive washing, the cells were incubated for 20 min with 5% NSS in the presence or absence of 0.1% saponin to permeabilize all cells. Cells were incubated for 60 min with saturating concentrations of ALEXA488-conjugated goat-anti-mouse antibody (20 μg/ml) and ALEXA594-conjugated WGA (10 μg/ml) in PBS containing 2% NSS. After washing, fluorescence ([…]) was measured using the bottom-reading mode in a fluorescence microtiter plate reader (FLUOstar Galaxy, BMG Labtechnologies, Offenburg, Germany). The percentage of GLUT4 at the PM was calculated for each condition. ALEXA594-WGA fluorescence was used to correct for variation in cell density in each well.
To determine the extent of insulin-induced GLUT4 translocation using the assay described supra, HA-GLUT4-expressing 3T3-L1 adipocytes grown in 96 well plates were incubated for 2 h in the absence of serum, whereafter 200 nM insulin was added at various time points and cell surface levels of HA-GLUT4 were analysed by indirect immunofluorescence labeling (FIG. 2B). Saturating levels of anti-HA and secondary antibodies were used to ensure that substantially all HA-GLUT4 molecules were labeled. A non-relevant antibody was used at the same concentration to determine the non-specific binding of the anti-HA antibody. Insulin stimulated the appearance of HA-GLUT4 at the PM with a half-time of about 2.5 min reaching a plateau by 12 min which was maintained for at least 60 min. No specific anti-HA labeling was detected in non-infected cells (FIG. 2A).

[4] = system: HA-GLUT4 expressing 3T3-L1 adipocytes; assay: Model of insulin resistance (chronic insulin stimulation, then acute insulin); type: cell-based; conditions: for level of GLUT4 at the plasma membrane after chronic insulin: FIG. 12A
Description: 3T3-L1 adipocytes retrovirally infected with GLUT4 (described in Example 1) were incubated 24 hours or 48 hours either with 600 nM insulin or with medium alone. After this chronic insulin stimulation (as indicated in FIG. 10) at 37° C. in a CO2 incubator, cells were washed and 200 nM insulin was added for additional 10 or 30 minutes. Cell surface levels of HA-GLUT4 were measured using the fluorescence based assay described supra and expressed as a percentage of total HA-GLUT4 detected in the cell. The experiment was also performed with the HA-GLUT4 TAIL mutant
HA-GLUT4 expressing 3T3-L1 adipocytes were grown in 96 well plates, incubated for 2 hours or overnight in medium supplemented with 10% fetal calf serum or no serum. 200 nM insulin in case of acute stimulation and 600 nM insulin in case of chronic stimulation have been used. After overnight stimulation cells were washed and 200 nM fresh insulin was added for 10 or 30 mln.

[5] = system: 3T3-L1 fibroblasts expressing HA-tagged GLUT4; assay: Fluorescence-based HA-GLUT4 translocation assay in fibroblasts; type: cell-based
[6] = system: 3T3-L1 adipocytes expressing HA-GLUT4; assay: Single cycle GLUT4 internalization experiment; type: cell-based
Description: For single cycle internalization experiments cells were stimulated for 20 min with 200 nM insulin after starvation and washed on ice with ice-cold DMEM containing 20 mM HEPES pH 7.4 and 0.2% BSA. Cells were incubated with 100 nM wortmannin or 200 nM insulin and either anti-HA (25 μg/ml) or non-relevant antibody (MOPC21) in DMEM/HEPES/BSA for 1 h on ice. Wortmanin was added to abolish insulin signaling. […] Cells were washed extensively, then either 100 nM wortmanin or 200 nM insulin in DMEM/HEPES/BSA was added. The plate was then transferred to 37° C. and at different times, formaldehyde was added to the wells to a concentration of 3%. After 5 min the formaldehyde was washed away and residual amounts were quenched. The cells were incubated for 20 min with 5% NSS in the absence of saponin, labeled with ALEXA488-conjugated goat-anti-mouse antibody and ALEXA594-conjugated WGA, washed and analysed as described above.
GLUT4 WT molecules that were labeled with anti-HA antibody on ice were rapidly cleared from the cell surface as indicated by the disappearance of GLUT4 at early time points after transfer of the cells from ice to 37° C. (FIG. 4). After approximately 5 min the level of GLUT4 at the PM reached steady state in the presence but not in the absence of insulin, indicating recycling of GLUT4 back to the PM in insulin-stimulated cells. […]

GLUT1 = conditions: Perini et al., Diabetes 53:41-52, 2004; cited from earlier work

For `CO[C@@H]1C[C@@H](C[C@H]2CC[C@H](C)[C@H]([C@@H](C)C(=O)O)O2)O[C@]2(O[C@](C)([C@H]3CC[C@@](C)([C@@H]4O[C@@H]([C@H]5O[C@@](O)(CO)[C@H](C)C[C@@H]5C)C[C@@H]4C)O3)C[C@H]2C)[C@@H]1C` [Nigericin, nigericin], the “effect on insulin mediated GLUT4 translocation” value (GLUT4; Chu et al., J Cell Biochem. 2002;85:83-91) is listed as “inhibit insulin mediated GLUT4 translocation”.

In the case of `OC[C@H]1O[C@@](CO)(O[C@H]2O[C@H](CO)[C@@H](O)[C@H](O)[C@H]2O)[C@@H](O)[C@@H]1O` [sucrose], the “level of HA-GLUT4 translocated to the plasma membrane” value [1] is reported as “dramatically increases”.

For insulin, the “HA-GLUT4 expressed in the cell that did not translocate to the membrane during the experiment” value ([2]; 200 nM insulin, up to 180 min) was “approximately 30%”, the “HA-GLUT4 labeled by anti-HA antibody uptake, percentage of total post-fixation labeling” value ([2]; 200 nM insulin, up to 180 min, FIG. 6A) was “approximately 30%” and the “size of the recycling pool of GLUT4” value ([2]; different doses of insulin, FIG. 8) was “incrementally increased with increasing doses”. For the same compound, the “time for which plateau of HA-GLUT4 at the PM was maintained” value ([3]; 200 nM insulin) was “at least 60 min”, the “time to plateau of HA-GLUT4 at the PM” value ([3]; 200 nM insulin after 2 h in the absence of serum) was ≤ 12 min and the “half-time of appearance of HA-GLUT4 at the PM” value ([3]; 200 nM insulin after 2 h in the absence of serum, 96 well plates) was “about 2.5 min”. The “effect of long-term insulin treatment on cell surface HA-GLUT4 levels” value ([3]; 200 nM insulin for up to 3 hours, FIG. 6H) was “did not drastically down-regulate cell surface GLUT4 levels”, the “level of GLUT4 at the PM as percentage of total specific fluorescence” value ([3]; 200 nM insulin, basal value 4%) was 34% and the “increase in cell surface GLUT4 levels in response to insulin stimulation” value ([3]; adipocytes, 200 nM insulin) was ~8 fold. The “levels of GLUT4 translocation after chronic insulin” value ([4]; 600 nM insulin 24 or 48 h in the absence of serum (-serum or KRP), then 200 nM insulin) was “little more than basal levels”, the “level of GLUT4 at the plasma membrane after chronic insulin” value ([4]; 600 nM insulin 24 h in the presence of serum) was “dramatically increased” and the “level of GLUT4 at the plasma membrane after chronic insulin” value ([4]; 600 nM insulin 48 h in the presence of serum) was “suppressed”. The “time to maximum level of surface GLUT4” value ([5]; followed by rapid reduction) was 6 min, the “increase in surface GLUT4 above non-stimulated cells” value ([5]; maximum level) was 5 fold and the “effect on GLUT4 internalization rate” value ([6]; 200 nM insulin versus 100 nM wortmannin (basal), GLUT4 WT and TAIL) was “unaffected”. The “time until level of GLUT4 at the PM reached steady state” value ([6]; in the presence of 200 nM insulin, after transfer from ice to 37° C.) was “approximately 5 min”.

For “margatoxin (TIINVKCTSPKQCLPPCKAQFGQSAGAKCMNGKCKCYPH; UniProt P40755 1-39, looked up)”, the “effect on level of GLUT4 translocated to the plasma membrane” value (GLUT4; suppression of Kv1.3 activity, Xu et al, Proc Natl Acad Sci USA. 101:3112-3117, 2004) is listed as “increase the level of GLUT4 translocated to the plasma membrane”.

With `C[C@@H]1C[C@@H]([C@H](O)CC2CC(=O)NC(=O)C2)C(=O)[C@@H](C)C1` [cycloheximide] the “GLUT4 that could not be labeled during antibody uptake” value ([2]; 10 mg/ml cycloheximide for 2 h prior to the addition of antibody, FIG. 6F) was 30%.

For `C[C@]12CC[C@H](O)CC1=CC[C@@H]1[C@@H]2CC[C@]2(C)C(=O)CC[C@@H]12` [DHEA, Dehydroepiandrosterone], the “effect on levels of GLUT1 at the plasma membrane” value (GLUT1) is listed as “enhance levels of GLUT1 at the plasma membrane”.
